The subject of this experiment is P388 leukemia ip, CD2F1 mice, survival T/C. Briefly: NCI In Vivo Anticancer Drug Screen. Data for tumor model P388 Leukemia (intraperitoneal) in CD2F1 (CDF1) mice. As to conditions: endpoint: median survival time, higher = longer survival. In a few lines: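 Mice carrying the transplanted tumor received test compound or vehicle. Survival was recorded in each group, and the value is the treated-group measurement divided by that of the vehicle-treated control group.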

Setting [1] is: dose: 50.0 mg/kg/injection, schedule: Q01DX009 (ip), vehicle: Klucel (hydroxypropylcellulose) (HPC).
[2] abbreviates: dose: 100.0 mg/kg/injection, schedule: Q01DX009 (ip), vehicle: Klucel (hydroxypropylcellulose) (HPC).
[3] abbreviates: dose: 200.0 mg/kg/injection, schedule: Q01DX009 (ip), vehicle: Klucel (hydroxypropylcellulose) (HPC).
Where [4] appears, read: dose: 50.0 mg/kg/injection, schedule: Q01DX005 (ip), vehicle: Klucel (hydroxypropylcellulose) (HPC).
[5] abbreviates: dose: 100.0 mg/kg/injection, schedule: Q01DX005 (ip), vehicle: Klucel (hydroxypropylcellulose) (HPC).
Where [6] appears, read: dose: 200.0 mg/kg/injection, schedule: Q01DX005 (ip), vehicle: Klucel (hydroxypropylcellulose) (HPC).
[7] abbreviates: dose: 60.0 mg/kg/injection, schedule: Q01DX005 (ip), vehicle: saline with Tween-80.
Where [8] appears, read: dose: 120.0 mg/kg/injection, schedule: Q01DX005 (ip), vehicle: saline with Tween-80.
[9] abbreviates: dose: 240.0 mg/kg/injection, schedule: Q01DX005 (ip), vehicle: saline with Tween-80.
Where [10] appears, read: dose: 50.0 mg/kg/injection, schedule: Q04DX003 (ip), vehicle: saline with Tween-80.
Where [11] appears, read: dose: 100.0 mg/kg/injection, schedule: Q04DX003 (ip), vehicle: saline with Tween-80.
The mark [12] stands for this setting: dose: 50.0 mg/kg/injection, schedule: Q01DX009 (ip), vehicle: saline.
Setting [13] is: dose: 100.0 mg/kg/injection, schedule: Q01DX009 (ip), vehicle: saline.
Setting [14] is: dose: 100.0 mg/kg/injection, schedule: Q01DX001 (ip), vehicle: saline with Tween-80.
The mark [15] stands for this setting: dose: 25.0 mg/kg/injection, schedule: Q01DX001 (ip), vehicle: saline with Tween-80.

Values joined by “and” are separate entries in the source; they are usually repeats but may differ in a detail not shown here. Equal values may be shown once. Inconclusive results and toxic doses are left out.

As for `CCN(CC)CCCC(C)Nc1cc(C)nc2c1ccc1c2ccc2c(NC(C)CCCN(CC)CC)cc(C)nc21` (configuration not stated), the T/C (dose: 12.5 mg/kg/injection, schedule: Q01DX009 (ip), vehicle: distilled water + Tween-80) was 118 % of control and the T/C (dose: 25.0 mg/kg/injection, schedule: Q01DX009 (ip), vehicle: distilled water + Tween-80) was 111 % of control.

As for `NC(N)=NS(=O)(=O)c1ccc(N2C(=O)CC3(CCCC3)C2=O)cc1`, the T/C by setting is: under setting [1], 99 % of control; under setting [2], 98 % of control; under setting [3], 112 % of control.

Take `Cc1ccc2nc3[nH]c(=O)[nH]c(=O)c3c(N)c2c1`: the T/C was 101 % of control under setting [4], 104 % of control under setting [5] and 102 % of control under setting [6].

As for `Fc1ccccc1N/N=c1\nnc2ccccc2s1`, the T/C reads like this: (dose: 50.0 mg/kg/injection, schedule: Q04DX002 (ip), vehicle: saline with Tween-80) 97 % of control; (dose: 100.0 mg/kg/injection, schedule: Q04DX002 (ip), vehicle: saline with Tween-80) 93 % of control; (dose: 200.0 mg/kg/injection, schedule: Q04DX002 (ip), vehicle: saline with Tween-80) 92 % of control.

Regarding `NC(=S)N/N=C/c1cc(=O)c2cc(Cl)ccc2o1`, the T/C by setting is: (dose: 50.0 mg/kg/injection, schedule: Q01DX005 (ip), vehicle: saline with Tween-80) 94 % of control; (dose: 100.0 mg/kg/injection, schedule: Q01DX005 (ip), vehicle: saline with Tween-80) 93 % of control; (dose: 200.0 mg/kg/injection, schedule: Q01DX005 (ip), vehicle: saline with Tween-80) 92 % of control.

On to `COP(=O)(CC(=O)CCCCCOC1CCCCO1)OC` (configuration not stated), for which the T/C by setting is: (dose: 50.0 mg/kg/injection, schedule: Q01DX005 (ip), vehicle: saline) 100 % of control; (dose: 100.0 mg/kg/injection, schedule: Q01DX005 (ip), vehicle: saline) 100 % of control; (dose: 200.0 mg/kg/injection, schedule: Q01DX005 (ip), vehicle: saline) 99 % of control.

Consider `NC(=O)/N=[N+](\[O-])c1ccccc1`, for which the T/C (dose: 50.0 mg/kg/injection, schedule: Q04DX003 (ip), vehicle: Klucel (hydroxypropylcellulose) (HPC)) was 98 % of control and the T/C (dose: 100.0 mg/kg/injection, schedule: Q04DX003 (ip), vehicle: Klucel (hydroxypropylcellulose) (HPC)) was 94 % of control.

As for `O=C(CN1C(=O)NC(c2ccccc2)(c2ccccc2)C1=O)NCCN1CCOCC1`, the T/C was 97 % of control under setting [7], 96 % of control under setting [8] and 97 % of control under setting [9].

In the case of `NNC12CCC(c3ccccc31)c1ccccc12`, the T/C under setting [10] is 95 % of control; the T/C under setting [11] was 110 % of control; the T/C (dose: 200.0 mg/kg/injection, schedule: Q04DX003 (ip), vehicle: saline with Tween-80) was 110 % of control.

Regarding `O=C1C2=C(OCCO2)C(=O)C2=C1OCO2`, the T/C is 109 % of control under setting [7], 107 % of control under setting [8] and 88 % of control under setting [9].

For the compound `COc1ccc(NC(=O)Nc2ccc(Cl)cc2)nn1`, the T/C was 103 % of control under setting [1], 101 % of control under setting [2] and 94 % of control under setting [3].

In the case of `CCOc1ccc2c(=O)c(C(=O)O)c[nH]c2c1`, the T/C is, setting by setting: under setting [12], 107 % of control; under setting [13], 107 % of control; (dose: 200.0 mg/kg/injection, schedule: Q01DX009 (ip), vehicle: saline) 108 % of control.

On to `Cc1nn2c(=O)c3c([N+](=O)[O-])c(C)nn3c(=O)c2c1[N+](=O)[O-]`, for which the T/C was 105 % of control under setting [4], 97 % of control under setting [5] and 100 % of control under setting [6].

Consider `CC(F)C(N)C(=O)O` (configuration not stated), for which the T/C (dose: 6.25 mg/kg/injection, schedule: Q01DX009 (ip), vehicle: Klucel (hydroxypropylcellulose) (HPC)) is 108 % of control and 117 % of control; the T/C (dose: 12.5 mg/kg/injection, schedule: Q01DX009 (ip), vehicle: Klucel (hydroxypropylcellulose) (HPC)) is 110 % of control and 118 % of control; the T/C (dose: 25.0 mg/kg/injection, schedule: Q01DX009 (ip), vehicle: Klucel (hydroxypropylcellulose) (HPC)) was 116 % of control; the T/C under setting [12] was 106 % of control; the T/C under setting [13] is 124 % of control.

For the compound `COc1ccc(N2C(=O)C(C)SC23C(=O)Nc2ccccc23)cc1` (configuration not stated), the T/C is 99 % of control under setting [7], 100 % of control under setting [8] and 98 % of control under setting [9].

As for `CSc1nc2c(Br)cnn2c(=O)[nH]1`, the T/C by setting is: under setting [14], 94 % of control; (dose: 200.0 mg/kg/injection, schedule: Q01DX001 (ip), vehicle: saline with Tween-80) 101 % of control; (dose: 400.0 mg/kg/injection, schedule: Q01DX001 (ip), vehicle: saline with Tween-80) 100 % of control.

In the case of `C[N+](C)(CC(=O)Nc1ccc(Cl)c(Cl)c1)CC(=O)c1ccc(Cl)c(Cl)c1`, the T/C reads like this: (dose: 25.0 mg/kg/injection, schedule: Q04DX003 (ip), vehicle: saline with Tween-80) 100 % of control; under setting [10], 100 % of control; under setting [11], 90 % of control.

`NC1=C(O)C(=O)C(c2cccc3ccccc23)O1` (configuration not stated): the T/C by setting is: under setting [7], 98 % of control; under setting [8], 93 % of control; under setting [9], 88 % of control.

Turning to `NC(=O)c1c(Cl)nc2sccn12`, the T/C is, setting by setting: under setting [15], 107 % of control; (dose: 50.0 mg/kg/injection, schedule: Q01DX001 (ip), vehicle: saline with Tween-80) 104 % of control; under setting [14], 101 % of control and 112 % of control.

Take `O=C/C=C/C=O`: the T/C is, setting by setting: (dose: 3.13 mg/kg/injection, schedule: Q01DX001 (ip), vehicle: saline with Tween-80) 102 % of control; (dose: 6.25 mg/kg/injection, schedule: Q01DX001 (ip), vehicle: saline with Tween-80) 102 % of control; (dose: 12.5 mg/kg/injection, schedule: Q01DX001 (ip), vehicle: saline with Tween-80) 102 % of control; under setting [15], 114 % of control.

Turning to `O=C(O)CC(=O)O.[NH-]C1CCCC([NH-])C1.[Pt+2]` (configuration not stated), the T/C runs as follows: (dose: 12.5 mg/kg/injection, schedule: Q04DX002 (ip), vehicle: saline with Tween-80) 157 % of control; (dose: 25.0 mg/kg/injection, schedule: Q04DX002 (ip), vehicle: saline with Tween-80) 180 % of control.

In the case of `Cc1ccc(NC(=O)N2CCOCC2)cc1NC(=O)N1CCOCC1`, the T/C is 100 % of control under setting [12] and 91 % of control under setting [13].

Regarding `CN(N=O)C1=NC2(CCCCC2)P(=O)(NNc2ncccn2)O1` (configuration not stated), the T/C is 101 % of control (dose: 60.0 mg/kg/injection, schedule: Q01DX005 (ip), vehicle: saline) and 102 % of control (dose: 120.0 mg/kg/injection, schedule: Q01DX005 (ip), vehicle: saline).

The record behind these values is PubChem BioAssay AID330 (DTP/NCI, 2004).
